US12077503B2, “Substituted cyclic amides and their use as herbicides” (FMC CORPORATION, priority 2015, dated 2024)
Read-outs that look alike come from different tables or passages of the source.

Key:
Type in all cases: in vivo
[1] = tested on: wheat (Triticum aestivum); assay: Test A postemergence; settings: Triticum aestivum, post-emergence, 240 h, read-out: Plant response rating, Wheat; for plant injury at 125 g/ha: 125 g ai/ha, visual rating after approx. 10 d; for plant injury at 500 g/ha: 500 g ai/ha
How it was run: (§1)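 Seeds sprayed preemergence with a directed soil spray, or plants at 2 to 10 cm height and one- to two-leaf stage sprayed postemergence, with test chemicals in a non-phytotoxic solvent mixture containing surfactant, in loam soil–sand blend. Injury rated visually against untreated controls after about 10 d in greenhouse, 0 (no effect) to 100 (complete control).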

[2] = tested on: ragweed (common ragweed, Ambrosia elatior); assay: Test A postemergence; settings: Ambrosia artemisiifolia, post-emergence, 240 h, read-out: Plant response rating, Ragweed; for pest or weed control at 125 g/ha: 125 g ai/ha, visual rating after approx. 10 d; for pest or weed control at 500 g/ha: 500 g ai/ha
How it was run: as §1

[3] = tested on: ryegrass, Italian (Italian ryegrass, Lolium multiflorum); assay: Test A postemergence; settings: Lolium multiflorum, post-emergence, 240 h, read-out: Plant response rating, Ryegrass, Italian; for pest or weed control at 125 g/ha: 125 g ai/ha, visual rating after approx. 10 d; for pest or weed control at 500 g/ha: 500 g ai/ha
How it was run: as §1

[4] = tested on: Galium (catchweed bedstraw, Galium aparine); assay: Test A postemergence; settings: Galium, post-emergence, 240 h, read-out: Plant response rating, Galium; for pest or weed control at 125 g/ha: 125 g ai/ha, visual rating after approx. 10 d; for pest or weed control at 500 g/ha: 500 g ai/ha
How it was run: as §1

corn (Zea mays) = assay: Test A postemergence; settings: Zea mays, post-emergence, 240 h; for Corn plant response rating (crop injury, 0 = no effect, 100 = complete kill) at 125 g/ha: 125 g ai/ha, postemergence, visual rating after approx. 10 d, 0 to 100 scale (0 no effect, 100 complete control); for Corn plant response rating (crop injury, 0 = no effect, 100 = complete kill) at 500 g/ha: Postemergence, 500 g ai/ha, 0 to 100 scale where 0 is no effect and 100 is complete control
How it was run: as §1

[5] = tested on: giant foxtail (Setaria faberii); assay: Test A postemergence; settings: Setaria faberi, post-emergence, 240 h, read-out: Plant response rating, Foxtail, Giant; for pest or weed control at 125 g/ha: 125 g ai/ha, visual rating after approx. 10 d; for pest or weed control at 500 g/ha: 500 g ai/ha
How it was run: as §1

[6] = tested on: nutsedge, yellow (yellow nutsedge, Cyperus esculentus); assay: Test C preemergence; settings: for Plant response rating (scale of 0 to 100), Nutsedge, Yellow: 31 g ai/ha, 0 is no effect, 100 is complete control; for Plant response rating, Nutsedge, Yellow: scale 0 to 100, 0 no effect, 100 complete control
How it was run: (§2)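 Preemergence application to seeds in loam/sand soil, or foliar (postemergence) application to plants 2–18 cm tall in peat moss/vermiculite medium; surfactant-containing non-phytotoxic solvent vehicle; greenhouse. Visual injury vs controls at 13–15 d; 0 = no effect, 100 = complete control.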

[7] = tested on: crabgrass, large (large crabgrass, Digitaria sanguinalis); assay: Test C preemergence; settings: for Plant response rating (scale of 0 to 100), Crabgrass, Large: 31 g ai/ha, 0 is no effect, 100 is complete control; for Plant response rating, Crabgrass, Large: scale 0 to 100, 0 no effect, 100 complete control
How it was run: as §2

soybean (Glycine max) = assay: Test C preemergence; settings: for Plant response rating (scale of 0 to 100), Soybean: 31 g ai/ha, 0 is no effect, 100 is complete control; for Plant response rating, Soybean: scale 0 to 100, 0 no effect, 100 complete control
How it was run: as §2

[8] = tested on: blackgrass (Alopecurus myosuroides); assay: Test C preemergence; settings: for Plant response rating (scale of 0 to 100), Blackgrass: 31 g ai/ha, 0 is no effect, 100 is complete control; for Plant response rating, Blackgrass: scale 0 to 100, 0 no effect, 100 complete control
How it was run: as §2

[9] = tested on: ryegrass, Italian (Italian ryegrass, Lolium multiflorum); assay: Test C preemergence; settings: for Plant response rating (scale of 0 to 100), Ryegrass, Italian: 31 g ai/ha, 0 is no effect, 100 is complete control; for Plant response rating, Ryegrass, Italian: scale 0 to 100, 0 no effect, 100 complete control
How it was run: as §2

[10] = tested on: Galium (catchweed bedstraw, Galium aparine); assay: Test C preemergence; settings: for Plant response rating (scale of 0 to 100), Galium: 31 g ai/ha, 0 is no effect, 100 is complete control; for Plant response rating, Galium: scale 0 to 100, 0 no effect, 100 complete control
How it was run: as §2

[11] = tested on: velvetleaf (Abutilon theophrasti); assay: Test C preemergence; settings: for Plant response rating (scale of 0 to 100), Velvetleaf: 31 g ai/ha, 0 is no effect, 100 is complete control; for Plant response rating, Velvetleaf: scale 0 to 100, 0 no effect, 100 complete control
How it was run: as §2

[12] = tested on: waterhemp (common waterhemp, Amaranthus rudis); assay: Test C preemergence; settings: for Plant response rating (scale of 0 to 100), Waterhemp: 31 g ai/ha, 0 is no effect, 100 is complete control; for Plant response rating, Waterhemp: scale 0 to 100, 0 no effect, 100 complete control
How it was run: as §2

[13] = postemergence, 0 to 100 scale (0 no effect, 100 complete control)
[14] = Postemergence, 0 to 100 scale where 0 is no effect and 100 is complete control
[15] = postemergence, visual injury, 0 to 100 scale (0 no effect, 100 complete control), approx. 10 d

CN1C[C@H](c2ccc(C(F)(F)F)cc2)[C@@H](C(=O)Nc2ccccc2F)C1=O [Compound 622, (3S,4S)—N-(2-fluorophenyl)-1-methyl-2-oxo-4-[4-(trifluoromethyl)phenyl]-3-pyrrolidinecarboxamide]
plant injury at 125 g/ha [1, 13]: 30%
plant injury at 500 g/ha [1, 14]: 70%
pest or weed control at 125 g/ha [2, 13]: 0%
pest or weed control at 500 g/ha [2, 14]: 40%
pest or weed control at 125 g/ha [3, 13]: 30%
pest or weed control at 500 g/ha [3, 14]: 50%
pest or weed control at 125 g/ha [4, 13]: 60%
pest or weed control at 500 g/ha [4, 14]: 70%
Corn plant response rating (crop injury, 0 = no effect, 100 = complete kill) at 125 g/ha (corn (Zea mays)): 50%
Corn plant response rating (crop injury, 0 = no effect, 100 = complete kill) at 500 g/ha (corn (Zea mays)): 70%
pest or weed control at 125 g/ha [5, 13]: 80%
pest or weed control at 500 g/ha [5, 14]: 90%
Plant response rating (scale of 0 to 100), Nutsedge, Yellow [6]: 0
Plant response rating, Nutsedge, Yellow ([6]; 62 g ai/ha): 0
Plant response rating, Nutsedge, Yellow ([6]; 125 g ai/ha): 0
Plant response rating, Nutsedge, Yellow ([6]; 250 g ai/ha): 0
Plant response rating (scale of 0 to 100), Crabgrass, Large [7]: 100
Plant response rating, Crabgrass, Large ([7]; 62 g ai/ha): 95
Plant response rating, Crabgrass, Large ([7]; 125 g ai/ha): 100
Plant response rating, Crabgrass, Large ([7]; 250 g ai/ha): 100
Plant response rating (scale of 0 to 100), Soybean (soybean (Glycine max)): 0
Plant response rating, Soybean (soybean (Glycine max); 62 g ai/ha): 20
Plant response rating, Soybean (soybean (Glycine max); 125 g ai/ha): 85
Plant response rating, Soybean (soybean (Glycine max); 250 g ai/ha): 45
Plant response rating (scale of 0 to 100), Blackgrass [8]: 0
Plant response rating, Blackgrass ([8]; 62 g ai/ha): 0
Plant response rating, Blackgrass ([8]; 125 g ai/ha): 80
Plant response rating, Blackgrass ([8]; 250 g ai/ha): 85
Plant response rating (scale of 0 to 100), Ryegrass, Italian [9]: 25
Plant response rating, Ryegrass, Italian ([9]; 62 g ai/ha): 50
Plant response rating, Ryegrass, Italian ([9]; 125 g ai/ha): 35
Plant response rating, Ryegrass, Italian ([9]; 250 g ai/ha): 70
Plant response rating (scale of 0 to 100), Galium [10]: 80
Plant response rating, Galium ([10]; 62 g ai/ha): 90
Plant response rating, Galium ([10]; 125 g ai/ha): 90
Plant response rating, Galium ([10]; 250 g ai/ha): 90
Plant response rating (scale of 0 to 100), Velvetleaf [11]: 0
Plant response rating, Velvetleaf ([11]; 62 g ai/ha): 25
Plant response rating, Velvetleaf ([11]; 125 g ai/ha): 70
Plant response rating, Velvetleaf ([11]; 250 g ai/ha): 70
Plant response rating (scale of 0 to 100), Waterhemp [12]: 75
Plant response rating, Waterhemp ([12]; 62 g ai/ha): 85
Plant response rating, Waterhemp ([12]; 125 g ai/ha): 90
Plant response rating, Waterhemp ([12]; 250 g ai/ha): 90

CN1C[C@H](c2ccc(F)c(F)c2)[C@@H](C(=O)Nc2cccc(F)c2F)C1=O [Compound 639, (3S,4S)—N-(2,3-difluorophenyl)-4-(3,4-difluorophenyl)-1-methyl-2-oxo-3-pyrrolidinecarboxamide]
plant injury at 125 g/ha [1, 13]: 60%
plant injury at 500 g/ha [1, 15]: 60%
pest or weed control at 125 g/ha [2, 13]: 0%
pest or weed control at 500 g/ha [2, 15]: 30%
pest or weed control at 125 g/ha [3, 13]: 30%
pest or weed control at 500 g/ha [3, 15]: 50%
pest or weed control at 125 g/ha [4, 13]: 40%
pest or weed control at 500 g/ha [4, 15]: 50%
Corn plant response rating (crop injury, 0 = no effect, 100 = complete kill) at 125 g/ha (corn (Zea mays)): 40%
Corn plant response rating (crop injury, 0 = no effect, 100 = complete kill) at 500 g/ha (corn (Zea mays)): 80%
pest or weed control at 125 g/ha [5, 13]: 90%
pest or weed control at 500 g/ha [5, 15]: 90%
Plant response rating (scale of 0 to 100), Nutsedge, Yellow [6]: 0
Plant response rating, Nutsedge, Yellow ([6]; 62 g ai/ha): 0
Plant response rating, Nutsedge, Yellow ([6]; 125 g ai/ha): 0
Plant response rating, Nutsedge, Yellow ([6]; 250 g ai/ha): 20
Plant response rating (scale of 0 to 100), Crabgrass, Large [7]: 98
Plant response rating, Crabgrass, Large ([7]; 62 g ai/ha): 98
Plant response rating, Crabgrass, Large ([7]; 125 g ai/ha): 100
Plant response rating, Crabgrass, Large ([7]; 250 g ai/ha): 100
Plant response rating (scale of 0 to 100), Soybean (soybean (Glycine max)): 0
Plant response rating, Soybean (soybean (Glycine max); 62 g ai/ha): 0
Plant response rating, Soybean (soybean (Glycine max); 125 g ai/ha): 10
Plant response rating, Soybean (soybean (Glycine max); 250 g ai/ha): 20
Plant response rating (scale of 0 to 100), Blackgrass [8]: 40
Plant response rating, Blackgrass ([8]; 62 g ai/ha): 85
Plant response rating, Blackgrass ([8]; 125 g ai/ha): 85
Plant response rating, Blackgrass ([8]; 250 g ai/ha): 90
Plant response rating (scale of 0 to 100), Ryegrass, Italian [9]: 25
Plant response rating, Ryegrass, Italian ([9]; 62 g ai/ha): 60
Plant response rating, Ryegrass, Italian ([9]; 125 g ai/ha): 60
Plant response rating, Ryegrass, Italian ([9]; 250 g ai/ha): 70
Plant response rating (scale of 0 to 100), Galium [10]: 85
Plant response rating, Galium ([10]; 62 g ai/ha): 80
Plant response rating, Galium ([10]; 125 g ai/ha): 85
Plant response rating, Galium ([10]; 250 g ai/ha): 95
Plant response rating (scale of 0 to 100), Velvetleaf [11]: 0
Plant response rating, Velvetleaf ([11]; 62 g ai/ha): 30
Plant response rating, Velvetleaf ([11]; 125 g ai/ha): 65
Plant response rating, Velvetleaf ([11]; 250 g ai/ha): 55
Plant response rating (scale of 0 to 100), Waterhemp [12]: 50
Plant response rating, Waterhemp ([12]; 62 g ai/ha): 65
Plant response rating, Waterhemp ([12]; 125 g ai/ha): 75
Plant response rating, Waterhemp ([12]; 250 g ai/ha): 80
